“Also recorded” adds a separate entry of the source.

The source of these data is patent US9782489B2, “MetAP-2 inhibitor polymersomes for therapeutic administration” (priority 2007, dated 2017).

The conditions of series [1]: post-administration; cited from earlier work.
The conditions of series [2]: in vivo; cited from earlier work.
The subject of series [3] is murine, human and metastatic tumors. The conditions noted are these: mice; most studies 30 mg/kg subcutaneously every other day; cited from earlier work.
The conditions of series [4]: high chemotherapeutic doses; cited from earlier work.
The subject of a further series is LLC tumors. Description: Oral Lodamin vs free TNP-470, primary Lewis lung carcinoma tumor experiments. The class given is in vivo, C57Bl/6J mice. The conditions noted are these: 30 mg/kg q.o.d. oral (TNP-470 equivalent), day 18, FIG. 9A; listed as free TNP-470. The protocol: For tumor experiments: LLC cells (1×10^6) or B16/F10 melanoma cells (1×10^6) were implanted subcutaneously in 8 week old C57Bl/6J male mice (Jackson Laboratories, Bar Harbor, Me.). Oral availability of free TNP-470 was compared to that of Lodamin. A dose of 30 mg/kg q.o.d. of free TNP-470 and an equivalent dose of Lodamin (Lodamin, 6 mg in 100 μl/d) were administered to LLC tumor bearing mice (˜100 mm^3) and tumor growth was followed for 18 d. Free drug was given as a suspension in double distilled water and freshly prepared before each dose. Additionally, we compared different doses and frequencies of Lodamin treatment: 15 mg/kg q.d., 15 mg/kg q.o.d. and 30 mg/kg q.o.d. To eliminate any possible effect of the vehicle (polymer without drug) one group of mice was given micelles without drug and tumor progression was compared to water treated mice.
For the melanoma tumor experiment, a dose of 15 mg/kg q.d. Lodamin was administered to B16/F10 melanoma bearing mice. In all experiments, tumor size and animal weight were monitored every 2 d. Tumor volume was measured with calipers in two diameters as follows: (width)×(length)×0.52. Note that all the above Lodamin doses are presented as TNP-470 equivalent.

In a further series the test system is obesity. The conditions noted are these: mice; cited from earlier work.
Series [5] can be described thus: Balance beam motor coordination test (neurotoxicity). The class given is in vivo. The conditions noted are these: 30 mg/kg q.o.d. for 14 d; Lodamin oral, free TNP-470 injected subcutaneously; vs water treated mice. Here is the method:
A slightly modified balance beam motor coordination test was performed on three groups of mice: Oral Lodamin treated mice (30 mg/kg eq. q.o.d.), free TNP-470 (30 mg/kg) subcutaneously injected mice and water treated mice (administered by gavage). The mice were pretreated for 14 d (n=4-5 per group) and then the mice were allowed to acclimate to the procedure room for 1 h, after which they were trained in 3 trials to cross a wide (20 mm width×1 m length) balance beam. All the mice crossed the wide beam without making foot-slip errors. The mice were then trained on a narrow (4 mm width×1 m length) beam for 3 trials. At the end of the training trials, no freezing behavior was observed, and the mice would start to walk within 4 seconds of being placed on the beam. The mice were then videotaped as they performed in 3 test trials of 3 beam crossings each—a total of 9 crossings per mouse. The 3 trials were separated by at least 1 h to avoid fatigue of the mice. Videotaped crossings were scored for number of foot-slip errors and time to cross. All experiments and scoring of the different groups were performed by an investigator who has been no knowledge regarding the treatment regime of the mice.

Take “6-O—(N-chloroacetylcarbamoyl) fumagillol [TNP-470]”: the “time up to which detected in mice sera” value in series [1] is reported as “up to 2 h”.
Regarding `COC1C(OC(=O)NC(=O)CCl)CCC2(CO2)C1[C@@]1(C)O[C@@H]1CC=C(C)C` (stereo partly shown) [TNP-470, 6-O—(N-chloroacetylcarbamoyl) fumagillol], in series [2], the “plasma half-life of the drug” value is given as “a few minutes” and the “plasma half-life of the metabolites” value is reported as “less than 2 hr”. Moreover, in series [3], the “inhibition of growth of human tumors” value is given as “up to 100%”, the “inhibition of growth of metastatic tumors” value is reported as “up to 100%” and the “inhibition of growth of murine tumors” value is reported as “up to 91%”. Moreover, in series [4], the “adverse effects in patients” value is “neurotoxicity”. Besides, the “inhibition of LLC tumor growth” value with LLC tumors was “no inhibition; also recorded: no effect”. In addition, in the series on obesity, the effect on obesity result was “prevent diet-induced and genetic obesity”. The “balance beam performance (foot-slip errors)” value in series [5] is “over twice as many errors”.
